Test results reported in ChEMBL document CHEMBL1201862, “PubChem BioAssay data set” (2004).
The source made the active and inactive calls. For most assays here, no stated cut-off is given here; in the data, actives have a measured EC50 and inactives only a lower limit.

Legend:
[1] = target: 5-hydroxytryptamine receptor 1E (Homo sapiens, UniProt P28566); assay: Counterscreen assay for S1P3 antagonists: Dose response cell-based high throughput screening assay to identify antagonists of the 5-Hydroxytryptamine Receptor Subtype 1E (5HT1E). [Related pubchem assays: 1429, 485 ]; format: functional
[2] = target: Sphingosine 1-phosphate receptor 3 (Homo sapiens, UniProt Q99500); assay: Dose response cell-based high throughput screening assay for antagonists of the Sphingosine 1-Phosphate Receptor 3 (S1P3). [Related pubchem assays: 1429, 485 ]; format: functional
[3] = target: T1, Streptokinase A (Streptococcus pyogenes serotype M1, UniProt P10520); assay: Absorbance Microorganism-Based Dose Response Follow up to Identify Inhibitors of Streptokinase Expression. [Related pubchem assays: 1677 (Project Summary), 1915, 1914, 1902 (Retest at Dose), 1900 (Counter Screen), 1662 (Primary HTS)]; format: functional, Streptococcus pyogenes M1 GAS
T1 sequence (P10520 whole entry): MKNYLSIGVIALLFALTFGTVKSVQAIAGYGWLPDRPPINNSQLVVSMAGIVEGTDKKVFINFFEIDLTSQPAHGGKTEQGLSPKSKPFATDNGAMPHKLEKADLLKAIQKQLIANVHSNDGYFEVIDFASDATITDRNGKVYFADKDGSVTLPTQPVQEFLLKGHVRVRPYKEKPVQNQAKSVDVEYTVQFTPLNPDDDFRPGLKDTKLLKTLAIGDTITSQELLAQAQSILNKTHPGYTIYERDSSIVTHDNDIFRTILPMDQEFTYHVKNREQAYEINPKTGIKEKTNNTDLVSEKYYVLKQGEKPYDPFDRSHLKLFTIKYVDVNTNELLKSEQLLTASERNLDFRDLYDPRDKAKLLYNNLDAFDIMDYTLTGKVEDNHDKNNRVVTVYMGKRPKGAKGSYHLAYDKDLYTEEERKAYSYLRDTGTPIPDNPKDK

[4] = system: Streptococcus; assay: Streptococcus pyogenes growth inhibition counter-screen, dose response, counter-screen for streptokinase expression inhibitor project, luminescence, BacTiter-Glo, strain UMAA2166 (AID 2477); format: functional, organism-based
[5] = inhibitors of firefly luciferase expression or activity, dose response, H4 neuroglioma cells, luminescence (AID 1990); format: functional, cell-based
[6] = system: Streptococcus sp. 'group A'; assay: growth inhibition of control SK(-) GAS strain, dose response, counter-screen for streptokinase expression inhibitor project, luminescence, kanamycin, BacTiterGlo, confirmation (AID 1900); format: functional, organism-based
[7] = system: BJ; assay: cytotoxicity toward BJ-TERT fibroblasts, dose response, cell-based, RAS-independent, luminescence (AID 1933); format: functional; details: Homo sapiens
[8] = Luminescence Cell-Based Dose Response HTS to Identify Inhibitors of 5'UTR Stem-Loop Driven Prion Protein mRNA Translation in H4 Neuroglioblastoma Cells. [Related pubchem assays: 1827 (Project Summary), 1813 (Primary HTS)]; format: functional
[9] = system: BJ; assay: cells; format: functional, cell-based; details: Homo sapiens
[10] = inhibitors of intracellular T. cruzi replication, confirmation, NIH3T3 host cells, beta-gal luminescence (AID 2044); format: functional, cell-based;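 further: intracellular parasites grown in NIH/3T3 mouse fibroblasts as host cells; luminescent beta-galactosidase reporter signal from transgenic T. cruzi replicating inside host cells; inhibitors lower the luminescence signal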
[11] = Luminescence-based dose response cell-based high throughput screening assay for cytotoxic compounds using the IEC-6 intestinal epithelial cell line. [Related pubchem assays: 1858 (Summary AID.), 1825 (Counterscreen.), 1907 (Confirmation screen.)]; format: functional
[12] = cytotoxicity toward NIH3T3 fibroblasts, dose response, counter-screen, cell-based, ATP luminescence, mouse fibroblasts (AID 2010); format: functional;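 further: cells exposed to compound for about 90 hours before reading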
[13] = system: BJ; assay: cytotoxicity toward BJ-TERT-LT-ST fibroblasts, dose response, cell-based, RAS-independent, luminescence (AID 1935); format: functional; details: Homo sapiens;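 further: BJ fibroblasts immortalized with TERT plus LT and ST oncogenes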
[14] = cytotoxicity toward DRD oncogenic fibroblasts, dose response, cell-based, non-viral oncogenic, luminescence (AID 1934); format: functional; details: Homo sapiens
[15] = system: Streptococcus; assay: Group A Streptococcus viability loss, dose response, counter-screen for streptokinase expression inhibitor project, luminescence, BacTiterGlo (AID 1915); format: functional, organism-based;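 further: potency for reduction of bacterial viability or growth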

Sequence of 5-hydroxytryptamine receptor 1E (P28566 whole entry): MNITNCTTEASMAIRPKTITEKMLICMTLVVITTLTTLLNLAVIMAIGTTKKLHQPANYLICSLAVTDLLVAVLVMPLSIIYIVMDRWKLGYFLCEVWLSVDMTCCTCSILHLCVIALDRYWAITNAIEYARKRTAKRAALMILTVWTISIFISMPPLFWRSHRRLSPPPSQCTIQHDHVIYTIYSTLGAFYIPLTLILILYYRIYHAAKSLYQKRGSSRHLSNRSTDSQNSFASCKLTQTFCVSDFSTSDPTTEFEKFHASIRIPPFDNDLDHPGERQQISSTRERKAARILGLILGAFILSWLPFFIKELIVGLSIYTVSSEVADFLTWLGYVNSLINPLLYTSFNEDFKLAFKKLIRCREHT
Sequence of Sphingosine 1-phosphate receptor 3 (Q99500 whole entry): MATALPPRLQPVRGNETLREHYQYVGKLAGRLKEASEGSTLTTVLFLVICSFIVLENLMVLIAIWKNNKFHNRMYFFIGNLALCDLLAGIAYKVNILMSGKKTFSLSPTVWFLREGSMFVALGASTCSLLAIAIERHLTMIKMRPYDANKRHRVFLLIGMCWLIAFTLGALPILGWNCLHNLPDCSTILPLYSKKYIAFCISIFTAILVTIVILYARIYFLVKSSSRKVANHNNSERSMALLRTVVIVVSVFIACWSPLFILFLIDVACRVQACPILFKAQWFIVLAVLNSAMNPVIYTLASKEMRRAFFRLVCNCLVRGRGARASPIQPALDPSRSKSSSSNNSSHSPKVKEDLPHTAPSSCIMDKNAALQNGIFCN

SMILES: Cc1ccc(NC(=O)C(OC(=O)c2ccc(F)cc2)c2ccccc2)cc1Cl (stereo not given)
- IC50 [1]: 15.6 µM (not active)
- IC50 [2]: 6.4 µM (active)

SMILES: COc1ccc(S(=O)(=O)c2ccc(NC(=O)c3ccccc3Cl)cc2C#N)cc1
- EC50 [3]: 5.44 µM (active)
- EC50 [4]: 40.5 µM (active)

SMILES: COc1ccccc1-c1nnc(Nc2nc3c(OC)cccc3s2)o1
- EC50 [5]: 8.66 µM (inconclusive)
- EC50 [6]: 1.67 µM (active)
- EC50 [7]: 0.904 µM (active)
- EC50 [8]: 5.65 µM (active)
- EC50 [9]: 0.635 µM (active)
- EC50 [10]: 0.559 µM (active)
- IC50 [11]: 0.886 µM (active)
- EC50 [12]: 0.576 µM (active)
- EC50 [13]: 0.457 µM (inconclusive)
- EC50 [14]: 28.9 µM (inconclusive)
- EC50 [15]: > 150 µM (inconclusive)
